A short description of data set [1]: Theoretical IDR from the Levich equation with solubility as input. To be noted: FaSSIF V1.
Source text: Dissolution/Transit Balance: Derivation of kdiss based on Intrinsic Dissolution Rate In addition to Equation (S1) (utilizing hdisk and Adisk ra ther than hparticle and Apowder), the Levich equation (Equation (S12)) [11] applies for the dissolution from a rotating disk with a constant surface area under sink conditions and the assumption of convective diffusion without reaction as dissolution mechanism:
where IDR is the intrinsic dissolution rate, D is the diffusion coefficient, ν is the kinematic viscosit y, ω is the rotational velocity and CS is the thermodynamic solubility. The equation can be rewritten to estimate the IDR using the rotational speed of the compressed disk in revolutions per minut e (Equation (S13Error!
For this, a unit conversion factor of 30/π must be applied for the conversion of ω in rad∙s–1 to revolutions per minut e (RPM) in min‐1.
The dissolution rate from the disk surface can be calculated via multiplication of the IDR by the disk surface area Adisk (Equation (S14)):
Equation (S1) (adjusted to the dissolution from a disk surface) and Equation (S14) (Levich equation) were equated to obtain Equation (S15).
Rearrangement of Equation (S15) for hdisk results in an equation for the thickness of the aqueous boundary layer (ABL) of the rotating disk (hdisk) under sink conditions (Equation (S16)): […]
Data set [2] can be described thus: Powder dissolution method for estimating IDR in FaSSIF V1. Particulars: FaSSIF V1, 37 °C, 100 rpm. The data set is classed as physicochemical. The procedure:
Istradefylline disks could not be prepared because disk compression led to a change in solid state. The IDR of istradefylline was therefore measured (n = 4) according to a published powder dissolution method for estimating rotating disk IDRs. Istradefylline was weighed into an assay vial containing a magnetic crossbar stirrer, in an amount corresponding to approximately twice the amount needed to saturate the medium. The vials were placed in a heating block and 20 mL pre-heated FaSSIF V1 (37.0 ± 0.5 °C) was added to start the dissolution experiments. The medium was stirred at 100 rpm and concentrations were measured with in situ UV-spectroscopy using fiber optic dip probes until a plateau in the dissolution profile was reached. The vials were protected from light with aluminum foil during the entire experiment. […]
(§1) The concentration‐time curves for IDR determination were recorded with in situ UV‐spectroscopy using fiber optic dip probes. […] The buffer was stirred at 100 rpm and spectra were recorded approximately 1 minut e after addition of the stock solution. […]
(§2) Second derivatives of the UV spectra were used to establish the calibration curves. Multiple wavelength ranges were evaluated, and calibration curves were accepted for further investigation when linear […]

Data set [3] in a line: Conversion of Caco-2 Papp(A⟹B) to effective human permeability (Simcyp Papp–Peff correlation). Particulars: for estimated/predicted human Peff: estimated from Caco-2 permeability data; for Estimated human Peff: from Papp(A⟹B) without inhibitor, atenolol and propranolol as calibrators. As for the experimental part:
The Caco-2 Papp values were averaged. […] Estimated Peff values were used as input for the rDCS and rtarget calculations. […]
μM) to study transporter‐mediated efflux effects. In those experiments, elacridar was included in both compartments during the equilibration time and assay. The starting concentration (C0) was confirmed by […]
Details of the analytical standard method are presented in Ta ble S8. Measurements were performed in duplicate and reference […]
Papp values were averaged. To […]
permeability was monitored during the experiment using fluorimetric analysis. The pre‐defined lucifer […]
The built‐in literature Papp‐Peff […]
propranolol as calibrator substances was used. Estimated Peff values were used as input for the rDCS and rtarget calculations.
Table S8. Details of the LC‐MS/MS method for quantification of API concentrations in Caco‐2 permeability study […]
Acquity™ HSS T3 (1.8 μm) 2.1 x 30 mm (Waters Ltd, Herts, UK) fitted with Column SecurityGuard™ ULTRA Fully Porous Polar C18 cartridge (Phenomenex, […]
Mobile phase A 10 mM ammonium formate + 0.1 % v/v formic acid in water
Mobile phase B 100% Methanol
Gradient time profile 0.60 5 95

For data set [4] the following is noted: method not disclosed; cited from earlier work.
For data set [5] the following is noted: cited from earlier work.
Data set [6] can be described thus: Disk intrinsic dissolution rate in FaSSIF V1 (µDISS Profiler). The data set is classed as physicochemical. Particulars: FaSSIF V1, 37 °C, 100 rpm. The procedure: The experimental design was adapted from a standard experimental protocol published previously. Disks (n = 3) with a surface area of 0.0707 cm^2 were prepared by compressing the APIs into disk dies. For this, 5 to 10 mg of the API was compressed for 1 min at 50 bar using a Mini-IDR Tablet Compression System (Heath Scientific Co. Ltd., Milton Keynes, UK). Loose powder on the disk surface or die was removed with compressed air. […] With the disk surface facing upwards, the dies were placed into round-shaped magnetic stirrers and transferred into 20 mL assay vials. The vials were placed in a heating block and pre-heated FaSSIF V1 (10 mL) was added to each vial to start the dissolution experiments. The disks were rotated at 100 rpm and concentrations were measured in situ with UV-spectroscopy using fiber optic dip probes. Experiments were performed in triplicate.
S.2.6. rDCS Customized Investigations: Intrinsic dissolution rate
as §1, §2

Where “and” joins values, the source holds several entries; their conditions need not be identical. Identical values can stand only once.

Results on 3 molecules are retold here after publication PMC10385664, “Projection of Target Drug Particle Size in Oral Formulations Using the Refined Developability Classification System (rDCS)” (Pharmaceutics, 2023).

As usually defined, the solubility is the concentration that dissolves in the medium under given conditions.

Consider `CCn1c(=O)c2c(nc(/C=C/c3ccc(OC)c(OC)c3)n2C)n(CC)c1=O` [Istradefylline, istradefylline], for which the “theoretical IDR (Levich equation with CS as input)” value in data set [1] was 0.346 ± 0.005 µg/min/cm^2. The “IDR FaSSIF V1 (powder dissolution method)” value in data set [2] is 0.302 ± 0.010 µg/min/cm^2 and 0.302 ± 0.010 ^3 µg/min/cm^2. Further, in data set [3], the “estimated/predicted human Peff” value was 4.66 ×10⁻⁶ cm/s and the “Estimated human Peff” value is 466 ×10⁻⁶ cm/s.

As to `Cc1ncc(OC[C@@]2(c3cccc(F)c3)C[C@H]2C(=O)Nc2ccc(F)cn2)c(C)n1` [Lemborexant, lemborexant], the “Literature logP” value in data set [4] is 3.70 [33]. Moreover, in data set [1], the “theoretical IDR (Levich equation with CS as input)” value turned out to be 2.24 ± 0.01 µg/min/cm^2. Further, in data set [5], the “solubility at pH 1.0” value is given as 1.6 mg/mL. Also, in data set [3], the “estimated/predicted human Peff” value was 4.2 ×10⁻⁶ cm/s and the “Estimated human Peff” value is 420 ×10⁻⁶ cm/s. For the same molecule, in data set [6], the “IDR FaSSIF V1 (disk dissolution method)” value was 1.99 ± 0.09 µg/min/cm^2 and 1.99 ± 0.09 ^2 µg/min/cm^2.

With `C[C@@H](c1ncncc1F)[C@](O)(Cn1cncn1)c1ccc(F)cc1F` [Voriconazole, voriconazole], in data set [4], the “Literature logP” value was 1.80 [32]. The “IDR FaSSIF V1 (disk dissolution method)” value in data set [6] was 84.8 ± 1.4 µg/min/cm^2 and 84.8 ± 1.4 ^2 µg/min/cm^2.
